In patent US10668039B2, “Methods for treatment of adenoid cystic carcinoma” (THE CHILDREN'S MEDICAL CENTER CORPORATION, priority 2016, dated 2020):

Key:
c-myb:GFP = c-myb:GFP zebrafish blastomere embryo culture chemical screen; type: cell-based; conditions: approximately 30 μM, 2 days
Description: The inventors have developed an embryo culture system in which embryos bearing a c-myb:GFP transgenic reporter were dissociated during sphere stage at 4 hours post fertilization (hpf), and cultured in gelatin-coated 384 well plates with chemicals for 2 days until imaging for fluorescent reporter activity (FIG. 1). This fluorescent transgene is expressed in a similar pattern to the endogenous gene. […] This transgene responds to inducers of hematopoiesis, as myb is a marker of hematopoietic stem cells (HSCs).
The image analysis software (ImageJ and MatLab) was used to identify hits that downregulate c-myb:GFP zebrafish embryo cultures by a z-score less than […] and more than 70% downregulation. Hits were assessed by eye and scored for morphology. Toxic compounds that caused poor embryoid body (EB) formation were assessed a 4.
Zebrafish cell culture: Zebrafish embryo cultures were adapted from Xu (2013). Dissociated blastomere cells were grown in medium composed of 85% LDF medium, 5% heat inactivated FBS, and 10% zebrafish day 1 embryo extract. LDF medium contains 50% Leibowitz's L-15 (Invitrogen), 20% DMEM (Invitrogen), and 30% DMEM/F-12 (Invitrogen), supplemented with 0.018% sodium bicarbonate, 15 mM HEPES (Invitrogen), 1% L-Glutamine (Invitrogen), 10 nM sodium selenite (Sigma-Aldrich), 1% N2 (Invitrogen), 2% B27 (Invitrogen), 1% Penicillin-Streptomycin (Invitrogen), and 0.2% Primocin (InvivoGen).
Screening procedures: Two 384-well plates were coated with 0.1% gelatin for each chemical library plate. Males of the c-myb:GFP transgenic line were set up overnight with casper females and kept separated until morning when they were mixed for mating. Embryos were washed twice with E3 embryo water and treated with pronase to remove chorions. Dechorionated embryos were washed with E3 embryo water and collected into tubes containing media. Embryos were disassociated by shaking ˜10 times and were filtered through a 40 μm nylon mesh filter. Resulting single cells were diluted with medium and aliquoted 30 μl per well into the 384-well plates at approximately 2 embryo equivalents per well. Chemicals were dispensed immediately afterwards with an Agilent Bravo robot. Chemicals from the libraries were diluted 300 times with LDF medium and were aliquoted 10 μl per well for a final concentration of approximately 33 μM. […] Cells were cultured in a 28° C. incubator with 5% CO2. Two days later, cells were imaged by a Yokogawa Cell Voyager 7000 imager. Images were analyzed by ImageJ and MatLab and confirmed by eye. […]
Culture of dissociated blastomere cells: Stage-matched zebrafish blastomeres were dissociated at 4 hpf and grown in medium composed of 85% LDF medium, 5% FBS, and 10% embryo extract. LDF medium contains 50% Leibowitz's L-15 (Invitrogen), 20% DMEM (Invitrogen), and 30% DMEM/F-12 (Invitrogen), supplemented with 2% B27 (Gibco), 15 mM HEPES (Gibco), 1% L-glutamine (Gibco), 1% N2 (Gibco), 10 nM sodium selenite (Sigma), 100 ug/mL piperacillin (Sigma), 10 ug/mL ciprofloxacin (GenHunter), and 0.018% sodium bicarbonate (Gibco). Embryo extract was made by homogenizing 24 hpf wildtype AB embryos in HBSS (Gibco).

c-myb [1] = assay: qPCR of sorted c-myb:GFP zebrafish embryo cells; type: cell-based; conditions: sorted c-myb:GFP cells from 72 hpf embryos, 1 μM, 6 hours
Description: RA dose response experiments were plated similarly in LDF medium with the appropriate RA concentration. Sorted c-myb:GFP+ cells were collected from 72 hpf transgenic embryos that were homogenized: embryos were finely chopped and dissociated using Liberase (Roche), cell suspensions were filtered, and 58,000 GFP+ live cells were collected using a FACS Aria cell sorter (BD Biosciences). Cells were cultured for 6 hours in LDF medium, and then collected for qPCR.
(§1) Quantitative PCR: Total RNA from cells was extracted using Qiagen RNeasy Mini Kit, and random primed cDNA was generated (Invitrogen, SuperScript III First-Strand Synthesis System). The SsoFast EvaGreen (Biorad) method was used to quantify cDNAs of interest, which are represented as the fold change in transcript level. The amount of cDNA starting material for each sample was normalized in relation to species-specific β-actin expression for zebrafish samples, and both gapdh and β-actin expression for human samples. The primer sequences used were zebrafish myb: forward, 5′-[…]-3′ (SEQ ID No:1), reverse, 5′-[…]-3′ (SEQ ID No:2); zebrafish β-actin: forward, 5′-[…]-3′ (SEQ ID No:3), reverse, 5′-[…]-3′ (SEQ ID No:4); human myb: forward, 5′-[…]-3′ (SEQ ID No:5), reverse, 5′-[…]-3′ (SEQ ID No:6); human gapdh: forward, 5′-[…]-3′ (SEQ ID No:7), reverse, 5′-[…]-3′ (SEQ ID No:8); human β-actin: forward, 5′-[…]-3′ (SEQ ID No:9), reverse, 5′-[…]-3′ (SEQ ID No:10).
Zebrafish quantitative PCR analysis: Stage-matched 72 hpf c-myb:GFP transgenic embryos were finely chopped and dissociated using Liberase (Roche). GFP+ cells were collected using a FACS Aria cell sorter (BD Biosciences). Sorted cells were resuspended in zebrafish blastomere media and plated with 1 μM retinoic acid agonists for 6 hours. Cells were then collected and RNA was isolated using the RNeasy Micro Plus Kit (Qiagen) as per the manufacturer's instructions. cDNA was synthesized using the SuperScript III Kit (Life Technologies). Quantitative PCR was performed in triplicate on a BioRad iQ5 real-time PCR machine using Ssofast EvaGreen Supermix (BioRad). Samples were normalized to β-actin gene. Zebrafish primers used (forward and reverse respectively): actin, 5′-[…]-3′ (SEQ ID No:3) and 5′-[…] -3′ (SEQ ID No:4); c-myb, 5′-[…]-3′ (SEQ ID No:1) and 5′-[…]-3′ (SEQ ID No:2); mpx, 5′-[…]-3′ (SEQ ID No:11) and 5′-[…]-3′ (SEQ ID No:12); GFP, 5′-[…]-3′ (SEQ ID No:13) and 5′-[…]-3′ (SEQ ID No:14).

c-myb [2] = assay: U937 time course qPCR of c-myb; type: cell-based, human; conditions: 1 μM; 6, 24 and 48 hours
Description: Cell culture: U937 cells were grown in RPMI 1640 (Life Technologies), 10% heat inactivated FBS, and 1% Penicillin-Streptomycin (Invitrogen). CellTiter-Glo Luminescent Cell Viability Assay (Promega) was performed as per manufacturer's instructions. Cell viability was assessed at day 2.
as §1
U937 time course quantitative PCR analysis: U937 cells were plated with 1 μM retinoic acid agonists for the duration indicated. Cells were then collected and RNA was isolated using the RNeasy Plus Mini Kit (Qiagen) as per the manufacturer's instructions. Further processing was done as described in the section above. Samples were normalized to β-actin gene. Human primers used (forward and reverse respectively): actin, 5′-[…]-3′ (SEQ ID No:9) and 5′-[…]-3′ (SEQ ID No:10); c-myb, 5′-[…]-3′ (SEQ ID No:5) and 5′-[…]-3′ (SEQ ID No:6).

ACC = conditions: Phase II trials in ACC; cited from earlier work
[3] = Table 2, c-myb:GFP embryo cultures, average across two plates
[4] = Table 2, c-myb:GFP embryo cultures
[5] = Table 3, GFP signal in blastomere embryo culture screen

## COc1ccc2c(c1)c(CC(=O)O)c(C)n2Cc1ccc(F)cc1 [1-(4-Fluorobenzyl)-5-methoxy-2-methylindole-3-acetic acid]
c-myb:GFP; [3]
  Z-Score: −1.726

## Cc1nsc(NC(=O)N2CCCC(Cc3ccc(F)cc3)C2)n1 (stereo not drawn) [3-(4-fluorobenzyl)-N-(3-methyl-1,2,4-thiadiazol-5-yl)piperidine-1-carboxamide]
c-myb:GFP; [3]
  Z-Score: −3.287

## Cc1nn(C)cc1-c1ccnc(NC(CC(C)(C)C)c2cccnc2)n1 (stereo not drawn) [4-(1,3-dimethyl-1H-pyrazol-4-yl)-N-(3,3-dimethyl-1-pyridin-3-ylbutyl)pyrimidin-2-amine]
c-myb:GFP; [3]
  Z-Score: −2.29

## COc1ccc(N2CCN(C(=O)Nc3nc(C)ns3)CC2(C)C)cc1 [4-(4-methoxyphenyl)-3,3-dimethyl-N-(3-methyl-1,2,4-thiadiazol-5-yl)piperazine-1-carboxamide]
c-myb:GFP; [3]
  Z-Score: −2.357

## Cc1nsc(NC(=O)N2CCC(Sc3ccccc3C)CC2)n1 [4-[(2-methylphenyl)thio]-N-(3-methyl-1,2,4-thiadiazol-5-yl)piperidine-1-carboxamide]
c-myb:GFP; [3]
  Z-Score: −2.228

## CC1=C(/C=C/C(C)=C\C=C\C(C)=C\C(=O)O)C(C)(C)CCC1 [9-cis retinoic acid]
c-myb [1]
  endogenous myb levels by qPCR: significantly downregulate
c-myb [2]
  myb levels in U937 by qPCR: significantly downregulate
c-myb:GFP; [4]
  Fold Change: −0.9153
c-myb:GFP; [3]
  Z-Score: −1.566
c-myb:GFP; [5]
  Fold Change: −0.9153
  Z-Score: −1.566

## C=C(C)[C@H]1CC=C(C(=O)O)CC1 [(−)-Perillic acid]
c-myb:GFP; [4]
  Fold Change: −0.7327
c-myb:GFP; [3]
  Z-Score: −1.848

## CCCCOCCOc1nc(-c2ccc(C(=O)O)c(F)c2)sc1C [AC 261066, 4-[4-(2-Butoxyethoxy-)-5-methyl-2-thiazolyl]-2-fluorobenzoic acid]
c-myb:GFP; [4]
  Fold Change: −0.7734
c-myb:GFP; [3]
  Z-Score: −1.697
c-myb:GFP; [5]
  Fold Change: −0.7734
  Z-Score: −1.697

## CC1(C)CCC(C)(C)c2cc(C(=O)Nc3ccc(C(=O)O)cc3)ccc21 [AM-580, 4-[(5,6,7,8-Tetrahydro-5,5,8,8-tetramethyl-2-naphthalenyl)carboxamido]benzoic acid]
c-myb:GFP; [4]
  Fold Change: −0.9547
c-myb:GFP; [3]
  Z-Score: −1.631
c-myb:GFP; [5]
  Fold Change: −0.9547
  Z-Score: −1.631

## CC(C)C[C@H](NC(=O)[C@H](Cc1ccccc1)NC(=O)c1cnccn1)B(O)O [Bortezomib]
ACC
  Objective Response Rate: 0%

## O=c1c2ccccc2[nH]c(=S)n1CCN1CCC(=C(c2ccc(F)cc2)c2ccc(F)cc2)CC1 [Diacylglycerol Kinase Inhibitor II]
c-myb:GFP; [3]
  Z-Score: −1.493

## CO[C@H]1C[C@@H]2CC[C@@H](C)[C@@](O)(O2)C(=O)C(=O)N2CCCC[C@H]2C(=O)O[C@H]([C@H](C)C[C@@H]2CC[C@@H](OCCO)[C@H](OC)C2)CC(=O)[C@H](C)/C=C(\C)[C@@H](O)[C@@H](OC)C(=O)[C@H](C)C[C@H](C)/C=C/C=C/C=C/1C [Everolimus]
ACC
  Objective Response Rate: 0%

## O=C(c1ccc(OCCN2CCCCC2)cc1)c1c(-c2ccc(O)cc2)sc2cc(O)ccc12 [Evista]
c-myb:GFP; [3]
  Z-Score: −3.318

## CC1(C)O[C@@H]2C[C@H]3[C@@H]4C[C@H](F)C5=CC(=O)C=C[C@]5(C)[C@H]4[C@@H](O)C[C@]3(C)[C@]2(C(=O)CO)O1 [FluniSOLIDe]
c-myb:GFP; [3]
  Z-Score: −3.085

## COc1cc2ncnc(Nc3ccc(F)c(Cl)c3)c2cc1OCCCN1CCOCC1 [Gefitinib]
ACC
  Objective Response Rate: 0%

## Cc1ccc(NC(=O)c2ccc(CN3CCN(C)CC3)cc2)cc1Nc1nccc(-c2cccnc2)n1 [Imatinib]
ACC
  Objective Response Rate: 0%

## Cl.FC(F)(F)c1cc(CO[C@H]2CCCN[C@H]2c2ccccc2)cc(C(F)(F)F)c1 [L-733,060 hydrochloride]
c-myb:GFP; [4]
  Fold Change: −0.752
c-myb:GFP; [3]
  Z-Score: −1.715

## CS(=O)(=O)CCNCc1ccc(-c2ccc3ncnc(Nc4ccc(OCc5cccc(F)c5)c(Cl)c4)c3c2)o1 [Lapatinib]
ACC
  Objective Response Rate: 0%

## Cc1c(C(C)Nc2ncnc3sccc23)cnn1C (stereo not drawn) [N-[1-(1,5-dimethyl-1H-pyrazol-4-yl)ethyl]thieno[2,3-d]pyrimidin-4-amine]
c-myb:GFP; [3]
  Z-Score: −2.83

## O=C(Cc1cccc(O)c1)NCc1cc2cc(Cl)ccc2[nH]1 [N-[(5-chloro-1H-indol-2-yl)methyl]-2-(3-hydroxyphenyl)acetamide]
c-myb:GFP; [3]
  Z-Score: −3.297

## Nc1nc2ccc(OC(F)(F)F)cc2s1 [Riluzole]
c-myb:GFP; [3]
  Z-Score: −6.521

## CNC(=O)c1cc(Oc2ccc(NC(=O)Nc3ccc(Cl)c(C(F)(F)F)c3)cc2)ccn1 [Sorafenib]
ACC
  Objective Response Rate: 11%

## O=C(O[C@H]1[C@H](Oc2ccccc2COC(=O)C2(O)C=CCCC2=O)O[C@H](CO)[C@@H](O)[C@@H]1O)c1ccccc1 (stereo partly drawn) [TREMULACIN]
c-myb:GFP; [3]
  Z-Score: −3.9299

## C/C(=C\c1ccc(C(=O)O)cc1)c1ccc2c(c1)C(C)(C)CCC2(C)C [TTNPB, 4-[(E)-2-(5,6,7,8-Tetrahydro-5,5,8,8-tetramethyl-2-naphthalenyl)-1-propenyl]benzoic acid]
c-myb:GFP; [3]
  Z-Score: −1.6339
c-myb:GFP; [5]
  Z-Score: −1.634

## O=C(CCCCCCC(=O)Nc1ccccc1)NO [Vorinostat]
ACC
  Objective Response Rate: 3%
